Experiment [1] has as its system MV-4-11 cells. Briefly: Oncology cell growth assay MV-4-11 (CellTiter Glo). The note with it: Homo sapiens, MV4-11, 72 h; MV-4-11, 3d growth; read-out: Cell activity (IC50 μM) MV-4-11 3d-Growth. Type of experiment: cell-based. In short, it runs like this: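 MV-4-11 AML cells (MLL-AF4), 3000 per well, exposed to 8-point 1:3 compound titration from 10 μM top concentration (0.2% DMSO) for 72 h. Viability by CellTiter Glo luminescence, normalized to DMSO controls; pIC50 from four-parameter curve fit.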

For experiment [2], the target named is BRD4-BD12 (1-477) (Homo sapiens (Human), UniProt O60885). Briefly: Alphascreen binding assay BRD4-BD12. The note with it: BRD4(1 2) H4; read-out: Biochemical activity (IC50 μM) BRD4(1 2) H4. In short, it runs like this:
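First, compound was preincubated 1 h at room temperature with the His-tagged BRD4 protein (BD1 44-164 or tandem BD12 1-477) and acetylated H4 peptide. Next, donor and acceptor beads were added at 7.5 μg/ml final. After 30 min, AlphaScreen emission was recorded.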
On the technique in general: In Alpha technology, singlet oxygen from a donor bead excites a nearby acceptor bead.

As to `COc1ccc(-c2cn([C@@H](C)c3ccccn3)c3cc(-c4c(C)noc4C)cnc23)cn1` [P-0975, 4-[3-(6-methoxy-3-pyridyl)-1-[(1S)-1-(2-pyridyl)ethyl]pyrrolo[3,2-b]pyridin-6-yl]-3,5-dimethyl-isoxazole], the IC50 in experiment [1] and in experiment [2] was < 1 µM each time.

Take `CNC(=O)c1ccc(-c2cn([C@@H](C)c3ccccn3)c3cc(-c4c(C)noc4C)cnc23)cc1` [P-0977, 4-[6-(3,5-dimethylisoxazol-4-yl)-1-[(1S)-1-(2-pyridyl)ethyl]pyrrolo[3,2-b]pyridin-3-yl]-N-methyl-benzamide]: the IC50 in experiment [1] and in experiment [2] was < 1 µM each time.

Consider `CNC(=O)c1ccc(-c2cn([C@@H](C)c3ccccn3)c3cc(-c4c(C)noc4C)cnc23)cn1` [P-0978, 5-[6-(3,5-dimethylisoxazol-4-yl)-1-[(1S)-1-(2-pyridyl)ethyl]pyrrolo[3,2-b]pyridin-3-yl]-N-methyl-pyridine-2-carboxamide], for which the 50% inhibitory concentration (IC50) in experiment [1] and in experiment [2] was < 1 µM in each case.

For the compound `Cc1noc(C)c1-c1cnc2c(-c3ccc(NS(C)(=O)=O)cc3)cn([C@@H](C)c3ccccn3)c2c1` [P-0979, N-[4-[6-(3,5-dimethylisoxazol-4-yl)-1-[(1S)-1-(2-pyridyl)ethyl]pyrrolo[3,2-b]pyridin-3-yl]phenyl]methanesulfonamide], the IC50 in experiment [1] and in experiment [2] was < 1 µM each time.

Turning to `CNS(=O)(=O)c1cccc(-c2cn([C@@H](C)c3ccccn3)c3cc(-c4c(C)noc4C)cnc23)c1` [P-0980, 3-[6-(3,5-dimethylisoxazol-4-yl)-1-[(1S)-1-(2-pyridyl)ethyl]pyrrolo[3,2-b]pyridin-3-yl]-N-methyl-benzenesulfonamide], the IC50 in experiment [1] and in experiment [2] was < 1 µM throughout.

Turning to `Cc1noc(C)c1-c1cnc2c(-c3cccc(NS(C)(=O)=O)c3)cn([C@@H](C)c3ccccn3)c2c1` [P-0981, N-[3-[6-(3,5-dimethylisoxazol-4-yl)-1-[(1S)-1-(2-pyridyl)ethyl]pyrrolo[3,2-b]pyridin-3-yl]phenyl]methanesulfonamide], the IC50 in experiment [1] and in experiment [2] was < 1 µM throughout.

Turning to `CC(=O)Nc1ccc(-c2cn([C@@H](C)c3ccccn3)c3cc(-c4c(C)noc4C)cnc23)cc1` [P-0984, N-[4-[6-(3,5-dimethylisoxazol-4-yl)-1-[(1S)-1-(2-pyridyl)ethyl]pyrrolo[3,2-b]pyridin-3-yl]phenyl]acetamide], the IC50 in experiment [1] and in experiment [2] was < 1 µM throughout.

On to `Cc1noc(C)c1-c1cnc2c(I)cn([C@@H](c3ccccn3)C3CC3)c2c1` [P-0985, 4-[1-[(R)-cyclopropyl(2-pyridyl)methyl]-3-iodo-pyrrolo[3,2-b]pyridin-6-yl]-3,5-dimethyl-isoxazole], for which the IC50 in experiment [1] and in experiment [2] was < 1 µM in each case.

On to `CC[C@@H](c1ccccn1)n1cc(-c2ccc(CC(=O)O)cc2)c2ncc(-c3c(C)noc3C)cc21` [P-0986, 2-[4-[6-(3,5-dimethylisoxazol-4-yl)-1-[(1S)-1-(2-pyridyl)propyl]pyrrolo[3,2-b]pyridin-3-yl]phenyl]acetic acid], for which the IC50 in experiment [1] and in experiment [2] was < 1 µM each time.

Regarding `Cc1noc(C)c1-c1cnc2c(-c3ccc(C(=O)O)cc3)cn([C@@H](c3ccccn3)C3CC3)c2c1` [P-0987, 4-[1-[(R)-cyclopropyl(2-pyridyl)methyl]-6-(3,5-dimethylisoxazol-4-yl)pyrrolo[3,2-b]pyridin-3-yl]benzoic acid], the IC50 in experiment [1] and in experiment [2] was < 1 µM in each case.

In the case of `Cc1noc(C)c1-c1cnc2c(I)cn([C@H](c3ccccn3)C3CC3)c2c1` [P-0988, 4-[1-[(S)-cyclopropyl(2-pyridyl)methyl]-3-iodo-pyrrolo[3,2-b]pyridin-6-yl]-3,5-dimethyl-isoxazole], the concentration for half-maximal inhibition (IC50) in experiment [1] and in experiment [2] was < 1 µM each time.

Regarding `COC(=O)c1ccc(-c2cn([C@H](c3ccccn3)C3CC3)c3cc(-c4c(C)noc4C)cnc23)cc1` [P-0989, methyl 4-[1-[(S)-cyclopropyl(2-pyridyl)methyl]-6-(3,5-dimethylisoxazol-4-yl)pyrrolo[3,2-b]pyridin-3-yl]benzoate], the half-inhibitory concentration (IC50) in experiment [1] and in experiment [2] was < 1 µM in each case.

Regarding `Cc1noc(C)c1-c1cnc2c(-c3ccc(C(=O)O)cc3)cn([C@H](c3ccccn3)C3CC3)c2c1` [P-0990, 4-[1-[(S)-cyclopropyl(2-pyridyl)methyl]-6-(3,5-dimethylisoxazol-4-yl)pyrrolo[3,2-b]pyridin-3-yl]benzoic acid], the IC50 in experiment [1] and in experiment [2] was < 1 µM throughout.

In the case of `Cc1noc(C)c1-c1ccc2c(I)cn(C(c3ccccc3)c3ccccn3)c2c1` (stereo not drawn) [P-0991, 4-[3-iodo-1-[phenyl(2-pyridyl)methyl]indol-6-yl]-3,5-dimethyl-isoxazole], the IC50 in experiment [1] and in experiment [2] was < 1 µM throughout.

For the compound `Cc1noc(C)c1-c1ccc2c(-c3ccc(C(=O)O)cc3)cn(C(c3ccccc3)c3ccccn3)c2c1` (stereo not drawn) [P-0992, 4-[6-(3,5-dimethylisoxazol-4-yl)-1-[phenyl(2-pyridyl)methyl]indol-3-yl]benzoic acid], the half-maximal inhibitory concentration (IC50) in experiment [1] and in experiment [2] was < 1 µM throughout.

For the compound `COC(=O)c1ccc(-c2cn(C(c3ccccn3)C3CCCC3)c3cc(-c4c(C)noc4C)cnc23)cc1` (stereo not drawn) [P-0993, methyl 4-[1-[cyclopentyl(2-pyridyl)methyl]-6-(3,5-dimethylisoxazol-4-yl)pyrrolo[3,2-b]pyridin-3-yl]benzoate], the IC50 in experiment [1] and in experiment [2] was < 1 µM in each case.

Consider `COC(=O)Cc1ccc(-c2cn(C(c3ccccn3)C3CCCC3)c3cc(-c4c(C)noc4C)cnc23)cc1` (stereo not drawn) [P-0994, methyl 2-[4-[1-[cyclopentyl(2-pyridyl)methyl]-6-(3,5-dimethylisoxazol-4-yl)pyrrolo[3,2-b]pyridin-3-yl]phenyl]acetate], for which the IC50 in experiment [1] and in experiment [2] was < 1 µM throughout.

Take `Cc1noc(C)c1-c1cnc2c(-c3ccc(C(=O)O)cc3)cn(C(c3ccccn3)C3CCCC3)c2c1` (stereo not drawn) [P-0995, 4-[1-[cyclopentyl(2-pyridyl)methyl]-6-(3,5-dimethylisoxazol-4-yl)pyrrolo[3,2-b]pyridin-3-yl]benzoic acid]: the half-maximal inhibitory concentration (IC50) in experiment [1] and in experiment [2] was < 1 µM each time.

In the case of `Cc1noc(C)c1-c1cnc2c(-c3ccc(CC(=O)O)cc3)cn(C(c3ccccn3)C3CCCC3)c2c1` (stereo not drawn) [P-0996, 2-[4-[1-[cyclopentyl(2-pyridyl)methyl]-6-(3,5-dimethylisoxazol-4-yl)pyrrolo[3,2-b]pyridin-3-yl]phenyl]acetic acid], the 50% inhibitory concentration (IC50) in experiment [1] and in experiment [2] was < 1 µM throughout.

On to `Cc1noc(C)c1-c1cnc2c(I)cn(C(c3ccccn3)C3CCCC3)c2c1` (stereo not drawn) [P-0997, 4-[1-[cyclopentyl(2-pyridyl)methyl]-3-iodo-pyrrolo[3,2-b]pyridin-6-yl]-3,5-dimethyl-isoxazole], for which the IC50 in experiment [1] and in experiment [2] was < 1 µM throughout.

For the compound `COC(=O)c1cc(-c2cn([C@@H](C)c3ccccn3)c3cc(-c4c(C)noc4C)cnc23)ccc1C` [P-0998, methyl 5-[6-(3,5-dimethylisoxazol-4-yl)-1-[(1S)-1-(2-pyridyl)ethyl]pyrrolo[3,2-b]pyridin-3-yl]-2-methyl-benzoate], the IC50 in experiment [1] and in experiment [2] was < 1 µM in each case.

As to `Cc1ccc(-c2cn([C@@H](C)c3ccccn3)c3cc(-c4c(C)noc4C)cnc23)cc1C(=O)O` [P-0999, 5-[6-(3,5-dimethylisoxazol-4-yl)-1-[(1S)-1-(2-pyridyl)ethyl]pyrrolo[3,2-b]pyridin-3-yl]-2-methyl-benzoic acid], the IC50 in experiment [1] and in experiment [2] was < 1 µM in each case.

With `Cc1noc(C)c1-c1cnc2c(-c3csc(C(=O)O)c3)cn([C@@H](C)c3ccccn3)c2c1` [P-1005, 4-[6-(3,5-dimethylisoxazol-4-yl)-1-[(1S)-1-(2-pyridyl)ethyl]pyrrolo[3,2-b]pyridin-3-yl]thiophene-2-carboxylic acid], the half-maximal inhibitory concentration (IC50) is 1 to 10 µM in experiment [1] and < 1 µM in experiment [2].

As for `COC(=O)c1ccc(-c2cn([C@@H](C)c3ccccn3)c3cc(-c4c(C)noc4C)cnc23)s1` [P-1006, methyl 5-[6-(3,5-dimethylisoxazol-4-yl)-1-[(1S)-1-(2-pyridyl)ethyl]pyrrolo[3,2-b]pyridin-3-yl]thiophene-2-carboxylate], the IC50 in experiment [1] and in experiment [2] was < 1 µM each time.

Take `COC(=O)c1ccc(-c2cn(C(c3ccccn3)C3CCC3)c3cc(-c4c(C)noc4C)cnc23)cc1` (stereo not drawn) [P-1011, methyl 4-[1-[cyclobutyl(2-pyridyl)methyl]-6-(3,5-dimethylisoxazol-4-yl)pyrrolo[3,2-b]pyridin-3-yl]benzoate]: the IC50 in experiment [1] and in experiment [2] was < 1 µM throughout.

Take `Cc1noc(C)c1-c1cnc2c(-c3ccc(C(=O)O)cc3)cn(C(c3ccccn3)C3CCC3)c2c1` (stereo not drawn) [P-1012, 4-[1-[cyclobutyl(2-pyridyl)methyl]-6-(3,5-dimethylisoxazol-4-yl)pyrrolo[3,2-b]pyridin-3-yl]benzoic acid]: the half-inhibitory concentration (IC50) in experiment [1] and in experiment [2] was < 1 µM each time.

Regarding `COC(=O)Cc1ccc(-c2cn(C(c3ccccn3)C3CCC3)c3cc(-c4c(C)noc4C)cnc23)cc1` (stereo not drawn) [P-1013, methyl 2-[4-[1-[cyclobutyl(2-pyridyl)methyl]-6-(3,5-dimethylisoxazol-4-yl)pyrrolo[3,2-b]pyridin-3-yl]phenyl]acetate], the IC50 in experiment [1] and in experiment [2] was < 1 µM each time.

Usually IC50 stands for the concentration that inhibits the measured activity by half.

The values are drawn from patent US10519177B2, “Heterocyclic compounds and uses thereof” (Plexxikon Inc., priority 2013, dated 2019).
